The conditions of data set [1]: cited from earlier work.
Data set [2] in a line: Doxorubicin remote loading encapsulation efficiency and short stability. It is filed as physicochemical. The conditions noted are these: for Encapsulation % (T0): doxorubicin. How it is done:
In this stage the efficiency of remote loading encapsulation and encapsulation stability were studied. Liposomes were prepared as described above. […] All formulations were made from HSPC:Cholesterol:PEG-DSPE mole ratio of 54.5:41:4.5, briefly the lipids were hydrated and suspended in the various ammonium ions to form MLV. The MLV were downsized by extrusion followed by dialysis to remove external ammonium salt and form the gradient, finally drug was remote loaded into the gradient liposomes.

Data set [3] in a line: Doxorubicin accelerated chemical stability in ammonium-anion salt solutions. Type of data set: physicochemical. The following applies: 4 hours at 70° C.; for Additional peaks: HPLC. The procedure: For accelerated stability the, chemical stability of doxorubicin in various ammonium-anions salts solutions was tested. Briefly, doxorubicin (2 mg/ml) was dissolved in various ammonium-anions salt solutions and incubated for 4 hours at the temperature of 70° C. At the end of 4 hours incubation doxorubicin concentration and the presence of doxorubicin degradation products were analyzed by HPLC using Agilent 1100 according to following protocol: Mobile phase: 50% MeOH, 40% phosphate buffer, pH=4, 10% Acetonitrile and 2% TEA Column: Phenomenex, Luna, C-18, Flow: 1 ml/min, detection wavelength 254 and 480 nm.

The nature of data set [4]: Topotecan remote loading encapsulation efficiency. It is filed as physicochemical. The following applies: 4 days storage at 5° C. The procedure: Remote loading of topotecan were performed in the same way as the experiments described in Table 4 and Table 5 below for doxorubicin remote loading except that the drug concentration was determined from its absorbance at a wave length of 370 nm (which is the wavelength of maximum absorbance of topotecan).

Where [5] appears, read: counter anion 500 mM, salt pH 5.5.
Where [6] appears, read: counter anion 500 mM, salt pH 6.2.
Where [7] appears, read: counter anion 250 mM, salt pH 5.5.
[8] abbreviates: counter anion 500 mM, salt pH 5.53.

On to `O=C(O)[C@H]1OC(O)[C@H](O)[C@@H](O)[C@@H]1O` (mixture of isomers) [Glucuronate], for which, in data set [1], the “Log P (log D at pH=5.5) value quoted in text” value is on record as below −2.3 and the “LogD (acid)- at pH = 5.5” value was −5.38.

As to `O=S(=O)(O)CCCO` [3-HydroxyPropane-1-Sulfonate], in data set [1], the “LogP (acid)” value was −2.59 and the “LogD (acid)- at pH = 5.5” value is given as −5.39.

As to `O=C(O)[C@H](O)[C@@H](O)[C@H](O)[C@H](O)CO` [Gluconate], in data set [1], the “LogP (acid)” value is −2.116 and the “LogD (acid)- at pH = 5.5” value is −4.83.

For the compound `O=C(O)CO` [Glycolate], the “Encapsulation % (T0)” value in data set [2] (setting [5]) turned out to be 41.19%. In data set [1], the “LogP (acid)” value is on record as −1.204.

With `CC(=O)C(=O)O` [Pyruvate], the “Encapsulation % Short stability 5° C. After one week” value in data set [2] (counter anion 500 mM, salt pH 6) is 15.38%. Moreover, in data set [1], the “LogP (acid)” value was −1.24 and the “LogD (acid)- at pH = 5.5” value is reported as −4.04.

Regarding `O=S(=O)(O)O` [Sulfate], in data set [3], the “Assay loss (%) at 254 nm” value is listed as below 15% and the Additional peaks result was “no”.

As for `CC[C@@]1(O)C(=O)OCc2c1cc1n(c2=O)Cc2cc3c(CN(C)C)c(O)ccc3nc2-1` [topotecan], the “encapsulation efficiency (loading)” value in data set [4] (topotecan HCl 1.3 mg/ml, ammonium 350 mM, methanesulfonate 350 mM counter anion) stood at 94%; in data set [4] (topotecan HCl, 500 mM ammonium, 250 mM sulfate counter anion), 93%.

On to Ethanesulfonate, for which, in data set [1], the “LogP (acid)” value was −1.577 and the “LogD (acid)- at pH = 5.5” value is reported as −4.85.

As to Lactate, in data set [2] (setting [6]), the “Encapsulation % Short stability 5° C. After one week” value was found to be 48.68%. In addition, the “Encapsulation % (T0)” value in data set [2] (counter anion 250 mM, salt pH 4.5) was 18.37%; in data set [2] (setting [7]), 23.42%; in data set [2] (setting [6]), 101.95%.

Turning to Maleate, the entries for the “Encapsulation % (T0)” value in data set [2] (setting [7]) and in data set [2] (setting [5]) were 36.23% and 22.55%, respectively.

As for Methanesulfonate, in data set [3], the “Assay loss (%) at 254 nm” value is listed as below 15% and the Additional peaks entry is “no”. Further, in data set [2] (setting [8]), the “Encapsulation % Short stability 5° C. After one week” value amounted to 110.66% and the “Encapsulation % (T0)” value is given as 106.32%. Moreover, in data set [1], the “LogP (acid)” value is reported as −2.087 and the “LogD (acid)- at pH = 5.5” value is listed as −5.39.

With Tartarate, the “LogP (acid)” value in data set [1] was −1.081.

The values are drawn from patent US20190374647A1, “STABLE LIPOSOMES FOR DRUG DELIVERY” (YISSUM RESEARCH DEVELOPMENT COMPANY OF THE HEBREW …, priority 2012, published 2019).
